# Like-named read-outs stand apart in the source and are kept apart here.
# Experiments:
# Acute oral LD50 = format: in vivo, mice (male, 25 gm.); details: mouse, in vivo; Table II; male mice, oral in sesame oil, highest dose 5000 mg/kg, observed 14 days, Finney's method; read-out: LD50 (95% Confidence Interval)
# Procedure: (§1) ^1 Male mice, 25 gm. were used. Each compound was
# (§2) given orally in sesame oil at doses ranging from
# (§3) highest dose was 5000 mg/kg. The mice were
# (§4) observed for 14 days and the number of deaths
# (§5) was recorded. LD50 values were calculated by […]
# mice [1] = assay: Potentiation of hexobarbital sleep time (relative sedative activity); format: in vivo, mice (male, Carworth CF1 strain); details: Table I; 316 mg/kg test compound oral, 90 minutes before hexobarbital 100 mg/kg i.p.
# Procedure: As a test of relative sedative activity of the various silanes, the ability of each to potentiate the action of hexobarbital was studied. For each silane, two groups of male mice (Carworth CF1 strain) were utilized as test animals. Two groups of mice (six/group) were used, one group was orally dosed with 316 mg./kg. of the test silane in sesame oil carrier 90 minutes before administration of hexobarbital. Hexobarbital was administered by intraperitoneal injection of 100 mg./kg. in saline carrier. The time from loss of the righting reflex to recovery of the righting reflex was recorded as sleep time. Potentiation of hexobarbital of the test silane is the ratio of the mean sleep time by the group of test animals dosed with the silane divided by the mean sleep time of the control group not dosed with silane.
# ^4 Potentiation of hexobarbital - values are the ratios of sleep time
# of animals dosed with 316 mg/kg test compound plus 100 mg/kg hexobarbital
# to the sleep times of animals dosed with hexobarbital alone.
# mice [2] = assay: Electroshock test (Maximal Electroshock Test, M.E.S.), inhibition of tonic extension of hind limbs; format: in vivo, mice (adult male, Carworth CF 1 strain); details: for ED50: Mus musculus
# Procedure: The electroshock test procedure was used to determine anticonvulsant activities of diphenylmethylsilanol. Adult male mice (Carworth CF 1 strain) were utilized as test animals. […] Seizure protection was scored as inhibition of tonic extension. Groups of mice (six/group) were dosed orally with varying amounts of diphenylmethylsilanol in a sesame oil suspension. The dosages ranged from 10 to 1000 mg./kg. and the train of electric shocks was applied 2, 4 and 6 hours after dosing. The effective dose to prevent convulsions in half the animals (ED50) was determined at 2, 4 and 6 hours to be 52, 63, 100 mg/kg, respectively, and the 95 percent CI (confidence interval) was 23 to 114 mg./kg.; 27 to 141 mg./kg.; 47 to 212 mg./kg.
# The electric shock test procedure was also used to determine anticonvulsant activities of phenylmethyldimethoxysilane. Adult male mice (Carworth CF 1 strain) were utilized as test animals. […] Seizure protection was scored as in Example 1. Groups of mice ten/group) were dosed orally with varying amounts of phenylmethyldimethoxysilane in a sesame oil solution. The dosages ranged from 25 to 200 mg./kg. and the train of electric shocks was applied 1/2, 1, 11/2, 2 and 3 hours after dosing. The effective dose to prevent convulsions in half the animals (ED50) was determined at 1/2, 1, 11/2, 2 and 3 hours to be 52, 86, 64, 82 and 90 mg./kg., respectively. Utilizing the same electroshock test procedure as set forth in the first paragraph of this example, groups of mice (ten/group) were dosed intraperitoneally with varying amounts of phenylmethyldimethoxysilane in a sesame oil solution. The dosages ranged from 25 to 200 mg./kg. and the train of electric shocks was applied 1/2, 1, 11/2, 2 and 3 hours after dosing. The effective dose to prevent convulsions in half the animals (ED50) was determined at 1/2, 1, 11/2, 2 and 3 hours to be 45, 65, 52, 51 and 70 mg./kg., respectively.
# The electric shock test used in Example 1 and 2 was used in determining the anticonvulsant activities of several other silanes.
# (§6) ^1 The test silane was administered orally in sesame oil vehicle at
# ^2 M.E.S. - Maximal Electroshock Test - ED50 is dose calculated
# to protect 50% of mice from tonic extensor convulsion. The dosages ranged
# mice [3] = assay: Protection vs. pentylenetetrazol clonic convulsions; format: in vivo; details: Table I, 316 mg/kg test compound, oral in sesame oil, pentylenetetrazol 80 mg/kg s.c., n.p. = no protection observed; for responders at 316 mg/kg: Mus musculus, read-out: Protection vs. Pentylenetetrazol (numbers of mice protected from clonic convulsion/number tested) (converted)
# Procedure: as §6
# ^3 Pentylenetetrazol 80 mg/kg s.c. produces clonic convulsions in 90%
# of control mice. Values in table are the numbers of mice protected from
# clonic convulsion/number tested when dosed with 316 mg/kg test compound.
# mice [4] = assay: Acute oral LD50; format: in vivo, mice (male, 25 gm.); details: Table II footnote 2; oral in sesame oil, up to 5000 mg/kg, 14 days
# Procedure: as §1, §2, §3, §4, §5
# [5] = Table I, oral, sesame oil, 2 hours after dosing, n.p. = no protection observed, read-out: MES ED50
# [6] = Table I, oral, sesame oil, 4 hours after dosing, read-out: MES ED50
# [7] = Table I, oral, sesame oil, 6 hours after dosing, read-out: MES ED50
Structure (SMILES),Potentiation of Hexobarbital (ratio of sleep time with test compound to hexobarbital alone) (mice [1]),ED50 (mice [2]; [5]) [mg/kg],ED50 (mice [2]; [6]) [mg/kg],ED50 (mice [2]; [7]) [mg/kg],Protection vs. Pentylenetetrazol (numbers of mice protected from clonic convulsion/number tested) (mice [3]),responders at 316 mg/kg (mice [3]) [%],also measured
CCO[Si](OCC)(OCC)c1ccccc1 [.phi.Si(OCH2 CH3)3],2.1,170,31,220,n.p.,,LD50 at 336 h (Acute oral LD50): 5140 mg/kg
C[Si](O)(c1ccccc1)c1ccccc1 [diphenylmethylsilanol],1.5,52,63,100,,50,"ED50 (mice [2]; Example 1, oral, sesame oil suspension, 2 hours after dosing, 95 percent CI 23 to 114 mg./kg., six mice/group, read-out: effective dose to prevent convulsions in half the animals (ED50)): 52 mg/kg; ED50 (mice [2]; Example 1, oral, sesame oil suspension, 4 hours after dosing, 95 percent CI 27 to 141 mg./kg., six mice/group, read-out: effective dose to prevent convulsions in half the animals (ED50)): 63 mg/kg; ED50 (mice [2]; Example 1, oral, sesame oil suspension, 6 hours after dosing, 95 percent CI 47 to 212 mg./kg., six mice/group, read-out: effective dose to prevent convulsions in half the animals (ED50)): 100 mg/kg"
CCO[Si](C)(C)c1ccccc1 [drawing 8; R1=CH3; R2=CH3; X=OC2 H5],> 1.3,200,213,350,,33.3,
C[Si](C)(O)c1ccccc1 [drawing 8; R1=CH3; R2=CH3; X=OH],2.7,118,135,110,,33.3,
O[Si](c1ccccc1)(c1ccccc1)c1ccccc1 [drawing 9; X=OH],1.9,105,60,110,n.p.,,
CCO[Si](CC)(OCC)c1ccccc1 [drawing 10; R1=C2 H5; X=OC2 H5],1.8,150,180,64,,66.7,
CC[Si](O)(O)c1ccccc1 [drawing 10; R1=C2 H5; X=OH],1.7,120,160,,,100,
CCO[Si](C)(OCC)c1ccccc1 [drawing 10; R1=CH3; X=OC2 H5],1.1,180,31,220,n.p.,,
CC(C)O[Si](C)(OC(C)C)c1ccccc1 [drawing 10; R1=CH3; X=OCH(CH3)2],1.8,94,84,41,,33.3,
"C[Si](O)(O)c1ccccc1 [drawing 10; R1=CH3; X=OH, phenylmethylsilanediol]",1.8,80,110,80,,33.3,
CC(=O)O[Si](C)(OC(C)=O)c1ccccc1 [drawing 10; R1=CH3; X=drawing 11],1.8,200,125,142,n.p.,,
C=C[Si](OCC)(OCC)c1ccccc1 [drawing 10; R1=CHCH2; X=OC2 H5],0.9,170,200,200,,16.7,
CO[Si](OC)(OC)c1ccccc1 [drawing 12; X=OCH3],1.3,560,300,160,n.p.,,
CC(C)O[Si](OC(C)C)(OC(C)C)c1ccccc1 [drawing 12; X=OCH(CH3)2],2.1,,> 1000,800,n.p.,,"MES ED50 (mice [2]; Table I, oral, sesame oil, 2 hours after dosing, n.p. = no protection observed): n.p."
CCO[Si](C)(C)c1ccccc1 [drawing 14],,,,,,,LD50 at 336 h (Acute oral LD50): 5380 mg/kg
C[Si](O)(c1ccccc1)c1ccccc1 [drawing 15],,,,,,,deaths observed at any dose level used (mice [4]): No deaths were observed; LD50 at 336 h (Acute oral LD50): > 5000 mg/kg
CO[Si](C)(OC)c1ccccc1 [phenylmethyldimethoxysilane],1.2,56,50,106,,33.3,"ED50 (mice [2]; 0.5 h, Example 2, oral, sesame oil solution, 1/2 hour after dosing, ten mice/group, read-out: effective dose to prevent convulsions in half the animals (ED50)): 52 mg/kg; ED50 (mice [2]; 1.5 h, Example 2, oral, sesame oil solution, 11/2 hours after dosing, ten mice/group, read-out: effective dose to prevent convulsions in half the animals (ED50)): 64 mg/kg; ED50 (mice [2]; ip, 0.5 h, Example 2, intraperitoneal, sesame oil solution, 1/2 hour after dosing, ten mice/group, read-out: effective dose to prevent convulsions in half the animals (ED50)): 45 mg/kg; ED50 (mice [2]; ip, 1.5 h, Example 2, intraperitoneal, sesame oil solution, 11/2 hours after dosing, ten mice/group, read-out: effective dose to prevent convulsions in half the animals (ED50)): 52 mg/kg; ED50 (mice [2]; ip, Example 2, intraperitoneal, sesame oil solution, 1 hour after dosing, ten mice/group, read-out: effective dose to prevent convulsions in half the animals (ED50)): 65 mg/kg; ED50 (mice [2]; ip, Example 2, intraperitoneal, sesame oil solution, 2 hours after dosing, ten mice/group, read-out: effective dose to prevent convulsions in half the animals (ED50)): 51 mg/kg; ED50 (mice [2]; ip, Example 2, intraperitoneal, sesame oil solution, 3 hours after dosing, ten mice/group, read-out: effective dose to prevent convulsions in half the animals (ED50)): 70 mg/kg; ED50 (mice [2]; Example 2, oral, sesame oil solution, 1 hour after dosing, ten mice/group, read-out: effective dose to prevent convulsions in half the animals (ED50)): 86 mg/kg; ED50 (mice [2]; Example 2, oral, sesame oil solution, 2 hours after dosing, ten mice/group, read-out: effective dose to prevent convulsions in half the animals (ED50)): 82 mg/kg; ED50 (mice [2]; Example 2, oral, sesame oil solution, 3 hours after dosing, ten mice/group, read-out: effective dose to prevent convulsions in half the animals (ED50)): 90 mg/kg"

# From US4039666A, “Anticonvulsant phenylsilanes” (Dow Corning Corporation, priority 1976, dated 1977)
